From patent publication US12421208B2, “Chemical compounds” (ASTRAZENECA AB, priority 2020, dated 2025)

Columns and labels:
MDR1 and BCRP = assay: In vitro human transporter efflux (MDCK-MDR1-BCRP); assay type: in vitro ADME; conditions: human, pH 7.4, Papp(B to A)/Papp(A to B), 1 or 0.1 μM, 90-min incubation
Protocol: In Vitro Human Transporter Efflux
MDCKII cells expressing MDR1 and BCRP were seeded onto polyethylene membranes in 96-well Transwell insert systems at a density to form a confluent cell monolayer. […] The final percent volume of the organic solvent was less than 1%. Permeation of the test compounds from A to B direction and from B to A direction was determined over a 90-min incubation at 37° C. and 5% CO2 with a relative humidity of 95%. At the end of the incubation, samples from the apical and basolateral side were taken and then precipitated with cold acetonitrile containing internal standard. After centrifugation at 4000 rpm, the supernatant was diluted with 0.1% formic acid aqueous solution and quantified by LC-MS/MS. The integrity of the cell monolayers was confirmed by using the marker Lucifer yellow.
(1) The efflux ratio was calculated using the following equation Efflux ratio=Papp(B to A)/Papp(A to B)
(2) where dCr/dt is the cumulative concentration of the compound in the receiver chamber as a function of time (in μM/s); Vr is the solution volume in the receiver chamber (0.1 ml on the apical side and 0.3 ml on the basolateral side); A is the surface area for the transport, that is, 0.11 cm2 for the area of the monolayer; and CO is the initial concentration in the donor chamber (in μM).

PARP2 = molecular target: T1, PARP2 (Homo sapiens, UniProt Q9UGN5); assay: PARP fluorescence anisotropy binding assay, PARP2; conditions: recombinant full length PARP2
T1 construct: Recombinant full length PARP2 protein
T1 sequence (Q9UGN5 whole entry): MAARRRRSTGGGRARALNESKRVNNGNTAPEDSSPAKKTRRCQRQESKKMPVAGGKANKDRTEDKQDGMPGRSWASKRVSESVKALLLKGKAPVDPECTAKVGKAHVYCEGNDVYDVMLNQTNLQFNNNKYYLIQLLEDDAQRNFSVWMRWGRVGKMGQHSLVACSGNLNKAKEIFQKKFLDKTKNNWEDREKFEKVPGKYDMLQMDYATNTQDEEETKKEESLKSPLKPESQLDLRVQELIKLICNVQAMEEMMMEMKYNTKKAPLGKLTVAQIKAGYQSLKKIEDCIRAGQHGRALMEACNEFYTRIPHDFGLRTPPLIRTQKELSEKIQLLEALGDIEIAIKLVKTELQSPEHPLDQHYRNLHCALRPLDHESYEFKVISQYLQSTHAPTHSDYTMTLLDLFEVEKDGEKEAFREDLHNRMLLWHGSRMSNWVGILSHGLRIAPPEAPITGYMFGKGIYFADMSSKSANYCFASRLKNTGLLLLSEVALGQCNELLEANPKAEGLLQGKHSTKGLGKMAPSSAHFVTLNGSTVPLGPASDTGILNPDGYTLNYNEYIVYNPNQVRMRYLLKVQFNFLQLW
Protocol: (§1) PARP Fluorescence Anisotropy Binding Assays
(§2) Recombinant full length PARP2 protein was diluted to 6 nM with 50 mM Tris pH 8, 0.001% Triton X100, 10 mM MgCl2, 150 mM NaCl and incubated for four hours with an equivalent volume of 2 nM fluorescent probe diluted with 50 mM Tris pH 8, 0.001% Triton X100, 10 mM MgCl2, 150 mM NaCl. The final DMSO concentration of the probe was kept below 1% (v/v).
(§3) Fluorescence anisotropy of the probe when bound to the proteins was measured using a BMG Pherastar FSX© in the presence of test compounds or solvent control and the effect on anisotropy determined. % inhibition values for different test compound concentrations were calculated and fitted to a four parameter logistic plot in order to determine the IC50 value.

PARP3 = molecular target: T2, PARP3 (Homo sapiens, UniProt Q9Y6F1); assay: PARP fluorescence anisotropy binding assay, PARP3; conditions: recombinant full length PARP3
T2 construct: Recombinant full length PARP3 protein
T2 sequence (Q9Y6F1 1-533): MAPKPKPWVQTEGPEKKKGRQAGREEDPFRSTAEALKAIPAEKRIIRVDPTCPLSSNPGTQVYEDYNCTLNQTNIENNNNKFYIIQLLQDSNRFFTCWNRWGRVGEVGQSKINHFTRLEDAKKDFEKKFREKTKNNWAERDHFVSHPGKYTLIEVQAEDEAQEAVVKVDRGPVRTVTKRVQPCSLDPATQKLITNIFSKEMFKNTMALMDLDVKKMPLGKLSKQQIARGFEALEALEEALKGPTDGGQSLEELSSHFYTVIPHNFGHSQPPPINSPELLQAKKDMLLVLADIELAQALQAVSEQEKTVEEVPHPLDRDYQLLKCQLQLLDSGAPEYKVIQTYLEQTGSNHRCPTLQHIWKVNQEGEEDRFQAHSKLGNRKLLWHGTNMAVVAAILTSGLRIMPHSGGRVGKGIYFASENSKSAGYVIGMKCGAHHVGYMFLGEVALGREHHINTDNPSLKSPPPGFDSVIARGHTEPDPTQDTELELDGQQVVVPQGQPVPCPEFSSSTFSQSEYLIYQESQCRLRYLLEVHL
Description: as §1

PARP5a = PARP5a (Homo sapiens, UniProt O95271); assay: PARP fluorescence anisotropy binding assay, PARP5a binding domain; conditions: recombinant PARP5a binding domain
Sequence of PARP5a (O95271 1112-1317): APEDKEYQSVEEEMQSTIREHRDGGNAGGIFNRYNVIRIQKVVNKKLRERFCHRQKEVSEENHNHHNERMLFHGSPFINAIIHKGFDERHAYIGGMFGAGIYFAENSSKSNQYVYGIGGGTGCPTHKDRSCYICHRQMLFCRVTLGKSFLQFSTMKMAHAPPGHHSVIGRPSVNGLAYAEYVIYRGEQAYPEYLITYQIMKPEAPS
Description: as §1

PARP6 = molecular target: T3, PARP6 (Homo sapiens, UniProt Q2NL67); assay: PARP fluorescence anisotropy binding assay, PARP6; conditions: recombinant full length GST tagged PARP6
T3 construct: Recombinant full length GST tagged PARP6 protein; GST
T3 sequence (Q2NL67 whole entry): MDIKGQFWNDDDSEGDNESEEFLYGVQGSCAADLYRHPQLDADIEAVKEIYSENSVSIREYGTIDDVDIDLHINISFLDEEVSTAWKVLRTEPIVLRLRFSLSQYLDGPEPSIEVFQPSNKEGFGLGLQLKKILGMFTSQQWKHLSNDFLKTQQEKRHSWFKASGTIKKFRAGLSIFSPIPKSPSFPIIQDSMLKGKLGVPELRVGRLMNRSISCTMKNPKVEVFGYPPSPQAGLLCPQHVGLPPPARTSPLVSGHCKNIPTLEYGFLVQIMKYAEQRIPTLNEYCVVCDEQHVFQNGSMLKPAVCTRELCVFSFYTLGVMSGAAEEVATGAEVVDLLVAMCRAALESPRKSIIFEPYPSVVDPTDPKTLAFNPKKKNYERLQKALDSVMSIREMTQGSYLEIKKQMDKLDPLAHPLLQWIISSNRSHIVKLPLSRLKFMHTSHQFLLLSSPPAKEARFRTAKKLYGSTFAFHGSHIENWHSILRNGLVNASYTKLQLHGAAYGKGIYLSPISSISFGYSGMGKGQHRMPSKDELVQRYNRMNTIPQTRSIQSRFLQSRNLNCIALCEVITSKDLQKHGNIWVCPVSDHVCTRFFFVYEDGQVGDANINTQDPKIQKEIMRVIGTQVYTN
Protocol: as §1
as §2, with “length GST tagged PARP6” for “length PARP2”, “to 160” for “to 6”, “of 6” for “of 2”
as §3, with “value. Where necessary, the compound Ki can be determined from the IC50 value using a Munson Rodbard equation defined in Anal Biochem. 1980 Sep. 1; 107(1):220-39 and is based on the known KD of the probe binding to the relevant PARP protein” for “value.”

hERG = hERG (Homo sapiens, UniProt Q12809); assay: hERG inhibition
Sequence of hERG (Q12809 whole entry): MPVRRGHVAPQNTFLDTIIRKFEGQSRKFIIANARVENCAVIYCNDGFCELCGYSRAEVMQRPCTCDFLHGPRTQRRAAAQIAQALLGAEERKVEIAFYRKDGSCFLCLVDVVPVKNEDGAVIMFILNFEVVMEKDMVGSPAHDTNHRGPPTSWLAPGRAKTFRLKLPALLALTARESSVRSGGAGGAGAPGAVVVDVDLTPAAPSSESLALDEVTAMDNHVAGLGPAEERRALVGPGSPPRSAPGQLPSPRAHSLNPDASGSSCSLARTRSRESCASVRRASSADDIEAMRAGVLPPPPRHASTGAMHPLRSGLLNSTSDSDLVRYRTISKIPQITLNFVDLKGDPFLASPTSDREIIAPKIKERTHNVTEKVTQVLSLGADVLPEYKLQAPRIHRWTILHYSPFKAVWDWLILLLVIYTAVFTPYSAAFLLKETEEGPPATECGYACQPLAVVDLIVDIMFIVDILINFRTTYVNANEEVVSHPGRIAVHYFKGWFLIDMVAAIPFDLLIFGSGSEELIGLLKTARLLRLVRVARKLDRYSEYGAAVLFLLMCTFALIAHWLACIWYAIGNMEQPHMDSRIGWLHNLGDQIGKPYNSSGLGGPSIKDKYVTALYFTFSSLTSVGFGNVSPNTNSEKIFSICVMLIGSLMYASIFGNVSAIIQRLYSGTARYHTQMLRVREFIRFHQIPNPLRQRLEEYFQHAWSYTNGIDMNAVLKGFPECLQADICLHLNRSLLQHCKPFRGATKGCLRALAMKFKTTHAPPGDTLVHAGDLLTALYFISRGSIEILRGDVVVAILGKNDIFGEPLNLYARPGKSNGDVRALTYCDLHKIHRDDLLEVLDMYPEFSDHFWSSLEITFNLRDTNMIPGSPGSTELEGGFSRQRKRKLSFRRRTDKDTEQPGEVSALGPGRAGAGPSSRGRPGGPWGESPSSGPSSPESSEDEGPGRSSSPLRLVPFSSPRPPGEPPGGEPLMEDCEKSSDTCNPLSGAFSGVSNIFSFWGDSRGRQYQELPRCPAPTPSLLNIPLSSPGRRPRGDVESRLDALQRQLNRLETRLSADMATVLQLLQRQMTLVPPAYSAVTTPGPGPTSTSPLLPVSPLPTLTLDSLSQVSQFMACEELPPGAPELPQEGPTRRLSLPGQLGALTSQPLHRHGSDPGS
Description: It is well known that blockade of the cardiac ion channel coded by human ether-n-gogo-related gene (hERG) is a risk factor in drug discovery and development. Blockage of hERG can cause safety problems such as cardiac arrhythmia. Advantageously, the compounds of Formula I have low hERG activity.

BRCA2 (−/−) DLD1 cells = assay: PARP proliferation assay (7 day compound dosing), BRCA2 (−/−) DLD1; assay type: cell-based; conditions: Homo sapiens, DLD-1, 168 h, BRCA2 −/− DLD-1 cells, 7 day dosing; read-out: BRCA2 −/− DLD-1 prolif. 7 d IC50
Protocol: (§4) PARP Proliferation Assay (7 Day Compound Dosing)
(§5) DLD1 and BRCA2 (−/−) DLD1 cells were harvested to a density of 5000 cells/ml and 2.5E4 cells/ml respectively in complete media, 40 μL/well seeded into 384-well plates (Greiner, Kremsmunster, Austria; 781090) using a Multidrop Combi then incubated at 37° C., 5% CO2 overnight. Next day (Day 1) using a Multidrop Combi add sytoxgreen (5 ul, 2 uM) and saponin (10 ul, 0.25% stock) to a day 0 plate, seal the plate using a black adhesive lid and incubate for >3 h at rt. Cells were imaged using Cell Insight (Thermo Fisher) fitted with a 4× objective. Test compounds are added using an Echo 555 and placed in incubator maintained at 37° C., 5% CO2 and incubated for 7 days. On Day 8 add sytox green (5 ul, 2 uM) and then saponin (10 ul, 0.25% stock) to plates, seal the plate using a black adhesive lid and incubate for >3 h at rt. Read all cells on the Cell Insight with 4× Objective. The rate of proliferation is determined in Genedata by assessing the total cell number output from the Cell Insight for Day 0 and Day 8 plates.

DLD1 cells = assay: PARP proliferation assay (7 day compound dosing), WT DLD1; assay type: cell-based; conditions: Homo sapiens, 168 h; WT DLD-1 cells, 7 day dosing; read-out: WT DLD-1 prolif. 7 d IC50
Protocol: as §4, §5

Compound | efflux ratio at 90 min (MDR1 and BCRP) | IC50 (PARP2) [µM] | IC50 (PARP3) [µM] | IC50 (PARP5a) [µM] | IC50 (PARP6) [µM] | IC50 (hERG) [µM] | IC50 (BRCA2 (−/−) DLD1 cells) [µM] | IC50 (DLD1 cells) [µM]
CNC(=O)c1ccc(N2CCN(Cc3ccc4nc(C(C)F)c(=O)[nH]c4c3F)CC2)c(C)n1 (single isomer, unassigned) [Example 14, 5-[4-[[5-fluoro-2-[(1S OR 1R)-1-fluoroethyl]-3-oxo-4H-quinoxalin-6-yl]methyl]piperazin-1-yl]-N,6-dimethyl-pyridine-2-carboxamide] | 3.7 | – | – | – | – | – | – | –
CCc1nc2ccc(CN3CCN(c4ccc(C(=O)NC)nc4Cl)CC3)c(Cl)c2[nH]c1=O [Example 8, 6-chloro-5-[4-[(5-chloro-2-ethyl-3-oxo-4H-quinoxalin-6-yl)methyl]piperazin-1-yl]-N-methyl-pyridine-2-carboxamide] | – | > 66 | > 100 | > 100 | > 100 | > 40 | 0.012 | > 7.9
CCc1nc2ccc(CN3CCN(c4ccc(C(=O)NC)nc4F)CC3)c(Cl)c2[nH]c1=O [Example 9, 5-[4-[(5-chloro-2-ethyl-3-oxo-4H-quinoxalin-6-yl)methyl]piperazin-1-yl]-6-fluoro-N-methyl-pyridine-2-carboxamide] | – | > 100 | > 100 | > 100 | > 100 | > 40 | 0.01 | > 10
CCc1nc2ccc(CN3CCN(c4ccc(C(=O)NC)nc4)CC3)c(Cl)c2[nH]c1=O [Example 10, 5-[4-[(5-chloro-2-ethyl-3-oxo-4H-quinoxalin-6-yl)methyl]piperazin-1-yl]-N-methyl-pyridine-2-carboxamide] | – | > 100 | > 100 | > 100 | > 100 | > 40 | > 30 | > 30
CCc1nc2ccc(CN3CCN(c4ccc(C(=O)NC)nc4C)CC3)c(Cl)c2[nH]c1=O [Example 11, 5-[4-[(5-chloro-2-ethyl-3-oxo-4H-quinoxalin-6-yl)methyl]piperazin-1-yl]-N,6-dimethyl-pyridine-2-carboxamide] | – | > 100 | > 100 | > 100 | > 100 | > 40 | 0.009 | > 30
CNC(=O)c1ccc(N2CCN(Cc3ccc4nc(C)c(=O)[nH]c4c3Cl)CC2)cn1 [Example 16, 5-[4-[(5-chloro-2-methyl-3-oxo-4H-quinoxalin-6-yl)methyl]piperazin-1-yl]-N-methyl-pyridine-2-carboxamide] | – | > 100 | > 100 | > 29 | > 100 | > 40 | 3.62 | > 30
CNC(=O)c1ccc(N2CCN(Cc3ccc4nc(C)c(=O)[nH]c4c3Cl)CC2)c(F)n1 [Example 17, 5-[4-[(5-chloro-2-methyl-3-oxo-4H-quinoxalin-6-yl)methyl]piperazin-1-yl]-6-fluoro-N-methyl-pyridine-2-carboxamide] | – | > 100 | > 100 | > 100 | > 100 | > 40 | 1.05 | > 10
CNC(=O)c1ccc(N2CCN(Cc3ccc4nc(C)c(=O)[nH]c4c3Cl)CC2)c(C)n1 [Example 18, 5-[4-[(5-chloro-2-methyl-3-oxo-4H-quinoxalin-6-yl)methyl]piperazin-1-yl]-N,6-dimethyl-pyridine-2-carboxamide] | – | > 100 | > 100 | > 100 | > 100 | – | 4.33 | 21
CNC(=O)c1ccc(N2CCN(Cc3ccc4nc(C)c(=O)[nH]c4c3F)CC2)c(F)n1 [Example 20, 6-fluoro-5-[4-[(5-fluoro-2-methyl-3-oxo-4H-quinoxalin-6-yl)methyl]piperazin-1-yl]-N-methyl-pyridine-2-carboxamide] | – | – | > 100 | > 100 | > 100 | > 40 | – | –
CCc1nc2ccc(CN3CCN(c4ccc(C(=O)NC)nc4C)CC3)c(F)c2[nH]c1=O [Example 23, 5-[4-[(2-ethyl-5-fluoro-3-oxo-4H-quinoxalin-6-yl)methyl]piperazin-1-yl]-N,6-dimethyl-pyridine-2-carboxamide] | – | – | – | – | – | > 40 | 0.003 | > 30
CCc1nc2ccc(CN3CCN(c4ccc(C(=O)NC)nc4C(F)F)CC3)c(F)c2[nH]c1=O [Example 24, 6-(difluoromethyl)-5-[4-[(2-ethyl-5-fluoro-3-oxo-4H-quinoxalin-6-yl)methyl]piperazin-1-yl]-N-methyl-pyridine-2-carboxamide] | – | – | – | – | – | > 36 | 0.003 | > 30
CCc1nc2ccc(CN3CCN(c4ccc(C(=O)NC)nc4F)CC3)c(F)c2[nH]c1=O [Example 27, 5-[4-[(2-ethyl-5-fluoro-3-oxo-4H-quinoxalin-6-yl)methyl]piperazin-1-yl]-6-fluoro-N-methyl-pyridine-2-carboxamide] | – | – | – | – | – | > 40 | 0.006 | 6.3
CCc1nc2ccc(CN3CCN(c4ccc(C(=O)NC)nc4)CC3)c(F)c2[nH]c1=O [Example 29, 5-[4-[(2-ethyl-5-fluoro-3-oxo-4H-quinoxalin-6-yl)methyl]piperazin-1-yl]-N-methyl-pyridine-2-carboxamide] | – | – | – | – | – | > 40 | 0.005 | > 10
CNC(=O)c1ccc(N2CCN(Cc3ccc4nc(C)c(=O)[nH]c4c3F)CC2)c(Cl)n1 [Example 30, 6-chloro-5-[4-[(5-fluoro-2-methyl-3-oxo-4H-quinoxalin-6-yl)methyl]piperazin-1-yl]-N-methyl-pyridine-2-carboxamide] | – | – | – | – | – | > 40 | 0.003 | > 30
CNC(=O)c1ccc(N2CCN(Cc3ccc4nc(C)c(=O)[nH]c4c3F)CC2)cn1 [Example 32, 5-[4-[(5-fluoro-2-methyl-3-oxo-4H-quinoxalin-6-yl)methyl]piperazin-1-yl]-N-methyl-pyridine-2-carboxamide] | – | – | – | – | – | > 40 | 1.08 | 23
CNC(=O)c1ccc(N2CCN(Cc3ccc4nc(C(F)(F)F)c(=O)[nH]c4c3F)CC2)c(F)n1 [Example 48, 6-fluoro-5-[4-[[5-fluoro-3-oxo-2-(trifluoromethyl)-4H-quinoxalin-6-yl]methyl]piperazin-1-yl]-N-methyl-pyridine-2-carboxamide] | – | – | – | – | – | > 40 | 0.018 | 27
